In paper PMC12454493, “Insight on novel sulfamoylphenyl pyrazole derivatives as anticancer carbonic anhydrase inhibitors” (Molecular Diversity, 2024):

Columns and labels:
Assay type in all cases: cell-based
RXF 393 = test: NCI-60 one-dose SRB screen (Renal Cancer); settings: Homo sapiens, single dose 10 µM, 48 h, read-out: Growth inhibition percent (GI %)
Description: (§1) The National Cancer Institute (NCI) Developmental Therapeutic Program (www.dtp.nci.nih.gov) selected the 20 novel synthesized compounds 4a-e, 5a-e, 6a-c, 9a-e, 10 and 11 to test for their anticancer activity at a single dose of 10 µM using SRB assay. […] Supplementary Data S3; Table S1 presents the detailed screening results of the most promising compounds. The preliminary screening’s detailed results for the remaining compounds are elucidated in the (Supplementary Data S3; Table S2).
(§2) The guidelines of the Drug Evaluation Branch’s protocol at the NCI in Bethesda served as the basis for the in vitro anticancer screening assays. at one dose 10 µM against a panel of 60 cancer cell lines. The human tumor cell lines used belonged to nine panels: leukemia, melanoma, lung, colon, CNS, ovarian, renal, prostate and breast cancers using the sulforhodamine B (SRB) assay in a 48 h drug exposure protocol.

TK-10 = test: NCI-60 one-dose SRB screen (Renal Cancer); settings: Homo sapiens, single dose 10 µM, 48 h, read-out: Growth inhibition percent (GI %)
Description: as §1, §2

786-0 = test: NCI-60 one-dose SRB screen (Renal Cancer); settings: Homo sapiens, single dose 10 µM, 48 h, read-out: Growth inhibition percent (GI %)
Description: as §1, §2

MCF-7 = test: NCI-60 one-dose SRB screen (Breast Cancer); settings: Homo sapiens, MCF7, single dose 10 µM, 48 h, read-out: Growth inhibition percent (GI %)
Description: as §1, §2

BT-549 = test: NCI-60 one-dose SRB screen (Breast Cancer); settings: Homo sapiens, single dose 10 µM, 48 h, read-out: Growth inhibition percent (GI %)
Description: as §1, §2

MDA-MB-231/ATCC = test: NCI-60 one-dose SRB screen (Breast Cancer); settings: Homo sapiens, single dose 10 µM, 48 h, read-out: Growth inhibition percent (GI %)
Description: as §1, §2

T-47D = test: NCI-60 one-dose SRB screen (Breast Cancer); settings: Homo sapiens, T47D, single dose 10 µM, 48 h, read-out: Growth inhibition percent (GI %)
Description: as §1, §2

HS 578T = test: NCI-60 one-dose SRB screen (Breast Cancer); settings: Homo sapiens, single dose 10 µM, 48 h, read-out: Growth inhibition percent (GI %)
Description: as §1, §2

MDA-MB-468 = test: NCI-60 one-dose SRB screen (Breast Cancer); settings: Homo sapiens, single dose 10 µM, 48 h, read-out: Growth inhibition percent (GI %)
Description: as §1, §2

U251 = test: NCI-60 one-dose SRB screen (CNS Cancer); settings: Homo sapiens, U-251, single dose 10 µM, 48 h, read-out: Growth inhibition percent (GI %)
Description: as §1, §2

SNB-75 = test: NCI-60 one-dose SRB screen (CNS Cancer); settings: Homo sapiens, single dose 10 µM, 48 h, read-out: Growth inhibition percent (GI %)
Description: as §1, §2

SF-295 = test: NCI-60 one-dose SRB screen (CNS Cancer); settings: Homo sapiens, single dose 10 µM, 48 h, read-out: Growth inhibition percent (GI %)
Description: as §1, §2

SF-268 = test: NCI-60 one-dose SRB screen (CNS Cancer); settings: Homo sapiens, single dose 10 µM, 48 h, read-out: Growth inhibition percent (GI %)
Description: as §1, §2

SF-539 = test: NCI-60 one-dose SRB screen (CNS Cancer); settings: Homo sapiens, single dose 10 µM, 48 h, read-out: Growth inhibition percent (GI %)
Description: as §1, §2

SNB-19 = test: NCI-60 one-dose SRB screen (CNS Cancer); settings: Homo sapiens, single dose 10 µM, 48 h, read-out: Growth inhibition percent (GI %)
Description: as §1, §2

NCI-H226 = test: NCI-60 one-dose SRB screen (Non-Small Cell Lung Cancer); settings: Homo sapiens, single dose 10 µM, 48 h, read-out: Growth inhibition percent (GI %)
Description: as §1, §2

NCI-H460 = test: as above; settings: Homo sapiens, single dose 10 µM, 48 h, read-out: Growth inhibition percent (GI %)
Description: as §1, §2

NCI-H23 = test: as above; settings: Homo sapiens, single dose 10 µM, 48 h, read-out: Growth inhibition percent (GI %)
Description: as §1, §2

HOP-92 = test: as above; settings: Homo sapiens, single dose 10 µM, 48 h, read-out: Growth inhibition percent (GI %)
Description: as §1, §2

A549/ATCC = test: as above; settings: Homo sapiens, single dose 10 µM, 48 h, read-out: Growth inhibition percent (GI %)
Description: as §1, §2

NCI-H322M = test: as above; settings: Homo sapiens, single dose 10 µM, 48 h, read-out: Growth inhibition percent (GI %)
Description: as §1, §2

HOP-62 = test: as above; settings: Homo sapiens, single dose 10 µM, 48 h, read-out: Growth inhibition percent (GI %)
Description: as §1, §2

EKVX = test: as above; settings: Homo sapiens, single dose 10 µM, 48 h, read-out: Growth inhibition percent (GI %)
Description: as §1, §2

NCI-H522 = test: as above; settings: Homo sapiens, single dose 10 µM, 48 h, read-out: Growth inhibition percent (GI %)
Description: as §1, §2

IGROV1 = test: NCI-60 one-dose SRB screen (Ovarian cancer); settings: Homo sapiens, IGROV-1, single dose 10 µM, 48 h, read-out: Growth inhibition percent (GI %)
Description: as §1, §2

OVCAR-5 = test: NCI-60 one-dose SRB screen (Ovarian cancer); settings: Homo sapiens, single dose 10 µM, 48 h, read-out: Growth inhibition percent (GI %)
Description: as §1, §2

SK-OV-3 = test: NCI-60 one-dose SRB screen (Ovarian cancer); settings: Homo sapiens, single dose 10 µM, 48 h, read-out: Growth inhibition percent (GI %)
Description: as §1, §2

OVCAR-8 = test: NCI-60 one-dose SRB screen (Ovarian cancer); settings: Homo sapiens, single dose 10 µM, 48 h, read-out: Growth inhibition percent (GI %)
Description: as §1, §2

OVCAR-4 = test: NCI-60 one-dose SRB screen (Ovarian cancer); settings: Homo sapiens, single dose 10 µM, 48 h, read-out: Growth inhibition percent (GI %)
Description: as §1, §2

OVCAR-3 = test: NCI-60 one-dose SRB screen (Ovarian cancer); settings: Homo sapiens, single dose 10 µM, 48 h, read-out: Growth inhibition percent (GI %)
Description: as §1, §2

NS(=O)(=O)c1ccc(NC(=O)COC(=O)c2cn(-c3ccc(S(N)(=O)=O)cc3)nc2-c2ccccc2)cc1 [Compound 4a, 2-Oxo-2-[(4-sulfamoylphenyl)amino] ethyl 3-phenyl-1-(4-sulfamoylphenyl)-1H-pyrazole-4-carboxylate]
inhibition at 10 µM (RXF 393): < 5%
inhibition at 10 µM (TK-10): < 5%
inhibition at 10 µM (786-0): 31.2%
inhibition at 10 µM (MCF-7): < 5%
inhibition at 10 µM (BT-549): 43.4%
inhibition at 10 µM (MDA-MB-231/ATCC): 10.5%
inhibition at 10 µM (T-47D): < 5%
inhibition at 10 µM (HS 578T): < 5%
inhibition at 10 µM (MDA-MB-468): < 5%
inhibition at 10 µM (U251): < 5%
inhibition at 10 µM (SNB-75): 31.1%
inhibition at 10 µM (SF-295): < 5%
inhibition at 10 µM (SF-268): < 5%
inhibition at 10 µM (SF-539): < 5%
inhibition at 10 µM (SNB-19): < 5%
inhibition at 10 µM (NCI-H226): < 5%
inhibition at 10 µM (NCI-H460): < 5%
inhibition at 10 µM (NCI-H23): < 5%
inhibition at 10 µM (HOP-92): < 5%
inhibition at 10 µM (A549/ATCC): < 5%
inhibition at 10 µM (NCI-H322M): < 5%
inhibition at 10 µM (HOP-62): < 5%
inhibition at 10 µM (EKVX): < 5%
inhibition at 10 µM (NCI-H522): < 5%
inhibition at 10 µM (IGROV1): < 5%
inhibition at 10 µM (OVCAR-5): < 5%
inhibition at 10 µM (SK-OV-3): < 5%
inhibition at 10 µM (OVCAR-8): < 5%
inhibition at 10 µM (OVCAR-4): < 5%
inhibition at 10 µM (OVCAR-3): < 5%
